From patent publication US7238691B2, “Piperidine derivatives and their use as modulators of chemokine (especially CCR3) activity” (AstraZeneca AB, priority 2001, dated 2007) come the findings set out here.

Molecules are shown by their SMILES.

The target of test [1] is T1, human H1 receptor (Homo sapiens, UniProt P35367).
T1 construct: purchased Furoscreen S A, Brussels, Belgium (so in the source); host or cells: CHO-K1
The test is described as follows: Histamine H1 receptor binding, competition displacement of [3H]-pyrilamine. The settings on record: 1 nM [3H]-pyrilamine; membranes from recombinant CHO-K1 cells expressing the human H1 receptor; 1 hour at room temperature; read-out: H1 pKi/ [1328_S] (converted). The method, then:
Histamine H1 receptor binding activity of compounds of the invention was assessed by competition displacement of 1 nM [3H]-pyrilamine (Amersham, Bucks, Product code TRK 608, specific activity 30Ci/mmol) to 2 μg membranes prepared from recombinant CHO-K1 cells expressing the human H1 receptor (Furoscreen S A, Brussels, Belgium, product code ES-390-M) in assay buffer (50 mM Tris pH 7.4 containing 2 mM MgCl2, 250 mM sucrose and 100 mM NaCl) for 1 hour at room temperature.
Background: In a radioligand displacement assay an active substance lowers the binding of a labelled ligand.

For test [2], the target named is T2, CCR3 (Homo sapiens, UniProt P51677).
T2 construct: Human eosinophils were isolated from EDTA anticoagulated peripheral blood; endogenous in cells; host or cells: human peripheral blood eosinophils
T2 sequence (P51677 1-355): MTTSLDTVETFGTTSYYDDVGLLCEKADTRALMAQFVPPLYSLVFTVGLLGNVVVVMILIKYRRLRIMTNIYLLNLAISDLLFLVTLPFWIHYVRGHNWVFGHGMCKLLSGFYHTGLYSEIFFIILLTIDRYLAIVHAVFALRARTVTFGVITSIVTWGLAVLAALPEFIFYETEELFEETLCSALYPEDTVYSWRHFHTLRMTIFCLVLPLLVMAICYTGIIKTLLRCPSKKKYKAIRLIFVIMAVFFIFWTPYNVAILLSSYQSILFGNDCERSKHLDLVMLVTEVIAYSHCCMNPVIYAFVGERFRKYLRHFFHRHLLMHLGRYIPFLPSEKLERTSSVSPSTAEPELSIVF
The test is described as follows: Human eosinophil chemotaxis (eotaxin mediated). Format: cell-based. The following applies: compound at 1 μM. The method, then:
Human Eosinophil Chemotaxis
Human eosinophils were isolated from EDTA anticoagulated peripheral blood as previously described (Hansel et al., J. Immunol. Methods, 1991, 145, 105-110). The cells were resuspended at 10×10^6 ml^−1 in RPMI containing 200 μg/ml penicillin, 200 μg/ml streptomycin sulfate and supplemented with 10% HIFCS, at room temperature.
Eosinophils (700 μl) were pre-incubated for 15 mins at 37° C. with 7 μl of either vehicle or compound (100× required final concentration in 10% DMSO). The chemotaxis plate (ChemoTx, 3 μm pore, Neuroprobe) was loaded by adding 28 μl of a concentration of eotaxin 0.1 to 100 nM (a selective CCR3 agonist over this concentration range) containing a concentration of a compound according to the Examples or solvent to the lower wells of the chemotaxis plate. The filter was then placed over the wells and 25 μl of eosinophil suspension were added to the top of the filter. The plate was incubated for 1 hr at 37° C. in a humidified incubator with a 95% air/5% CO2 atmosphere to allow chemotaxis.
The medium, containing cells that had not migrated, was carefully aspirated from above the filter and discarded. The filter was washed once with phosphate buffered saline (PBS) containing 5 mM EDTA to remove any adherent cells. […] The number of eosinophils migrating was quantified according to the method of Strath et al., J. Immunol. […]

T1 sequence (P35367 whole entry): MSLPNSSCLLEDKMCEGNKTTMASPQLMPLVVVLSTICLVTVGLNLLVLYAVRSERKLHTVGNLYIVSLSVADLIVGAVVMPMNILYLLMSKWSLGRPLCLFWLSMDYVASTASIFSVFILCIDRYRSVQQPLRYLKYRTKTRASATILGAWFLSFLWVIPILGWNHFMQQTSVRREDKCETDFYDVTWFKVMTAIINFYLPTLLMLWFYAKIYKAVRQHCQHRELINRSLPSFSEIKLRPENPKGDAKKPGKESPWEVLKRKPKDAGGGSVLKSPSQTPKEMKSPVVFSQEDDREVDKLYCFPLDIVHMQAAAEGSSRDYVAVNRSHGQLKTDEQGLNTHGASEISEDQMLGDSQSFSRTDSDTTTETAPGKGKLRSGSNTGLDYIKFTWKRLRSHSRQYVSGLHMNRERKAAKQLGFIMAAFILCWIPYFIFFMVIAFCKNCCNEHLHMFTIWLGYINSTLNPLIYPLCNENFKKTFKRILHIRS

For `CS(=O)(=O)c1cccc(C(=O)N2CCOC(CN3CCC(Oc4ccc(Cl)c(Cl)c4)CC3)C2)c1` (stereo not drawn) [Example 4, 2-{[4-(3,4-dichlorophenoxy)piperidin-1-yl]methyl}-4-[3-(methylsulfonyl)benzoyl]morpholine], in test [1], the Ki is 100 nM.

Broadly, the inhibition is the change of the read-out against control, counted positive when it falls. A higher inhibition goes with a strong effect. In the case of `O=C(c1c[nH]c(=O)c2ccccc12)N1CCO[C@H](CN2CCC(Oc3ccc(Cl)c(Cl)c3)CC2)C1` [Example 73], in test [2], the inhibition at 1 µM was more than 75%. In addition, the Ki in test [1] is 7.94 nM.

In test [2], `CS(=O)(=O)c1cccc(C(=O)N2CCO[C@@H](CN3CCC(Oc4ccc(Cl)c(Cl)c4)CC3)C2)c1` [Example 5, (2S)-2-{[4-(3,4-Dichlorophenoxy)piperidin-1-yl]methyl}-4-[3-(methylsulfonyl)benzoyl]morpholine] displayed an inhibition at 1 µM of more than 75%. In addition, the Ki in test [1] was 20 nM.

As to `O=C(c1cn2cc(F)ccc2n1)N1CCOC(CN2CCC(Oc3ccc(Cl)c(Cl)c3)CC2)C1` (stereo not drawn) [Example 3, 2-[(2-{[4-(3,4-dichlorophenoxy)piperidin-1-yl]methyl}morpholin-4-yl)carbonyl]-6-fluoroimidazo[1,2-a]pyridine], the Ki in test [1] was 12.6 nM.
